Experiment [1] has as its system TNFα production in RAW 264.7 macrophage cell line. Put plainly: Mouse TNF alpha quantification assay (LPS-stimulated macrophages, ELISA). The settings on record: RAW264.7, RAW 264.7 murine leukemia virus transformed macrophage cell lines, LPS stimulation, read-out: TNF-α % Inhibition at 30 μM. In kind it is cell-based.
Experiment [2] deals with IL6 production in RAW 264.7 macrophage cell line. Put plainly: Mouse IL6 quantification assay (LPS-stimulated macrophages, ELISA). It counts as cell-based. The settings on record: RAW264.7, RAW 264.7 murine leukemia virus transformed macrophage cell lines, LPS stimulation, read-out: IL-6 % Inhibition at 30 μM. (An ELISA detects its analyte on a solid surface through an enzyme-linked reagent.)

Data on 56 compounds can be found in patent US10940139B2, “Compounds that interact with the Ras superfamily for the treatment of cancers, inflammatory diseases, rasopathies, and fibrotic disease” (Shy Therapeutics LLC, priority 2017, dated 2021).

Regarding `Cc1sc2[nH]c(-c3ccccn3)nc(=O)c2c1-c1ccccc1` [drawing 2026], the results for the inhibition at 30 µM in experiment [1] and in experiment [2] were 1 to 25% and 0%, respectively.

As for `Oc1nc(-c2ccccn2)nc2scc(Br)c12` [drawing 2128], the inhibition at 30 µM in experiment [1] and in experiment [2] was 76 to 100% in each case.

As for `O=C(NCCc1cnc(O)nc1)c1csc2nc(-c3ccccn3)nc(N3CCS(=O)(=O)CC3)c12` [drawing 2247], the inhibition (usually the percentage by which the read-out fell short of the control) at 30 µM was 0% in experiment [1] and 51 to 75% in experiment [2].

As for `Cc1nc(-c2ccccn2)nc(O)c1CCC(=O)Nc1ccc(C(C)C)cc1` [drawing 2034], the inhibition at 30 µM in experiment [1] is 1 to 25%; in experiment [2], 0%.

Regarding `Nc1nc(-c2ccccn2)nc2c(-c3ccccc3Cl)csc12` [drawing 2228], the values for the inhibition at 30 µM in experiment [1] and in experiment [2] were 1 to 25% and 76 to 100%, respectively.

On to `Oc1nc(-c2ccccn2)nc2c(-c3ccccn3)csc12` [drawing 2288], for which the inhibition at 30 µM in experiment [1] and in experiment [2] was 76 to 100% throughout.

For the compound `N#Cc1cccc(-c2csc3c(O)nc(-c4ccccn4)nc23)c1` [drawing 2325], the inhibition at 30 µM in experiment [1] is 0%; in experiment [2], 26 to 50%.

As for `O=C(c1csc2c(O)nc(-c3ccccn3)nc12)N1CCNC(c2ccccc2Cl)C1` (stereo not shown) [drawing 2216], the figures for the inhibition at 30 µM in experiment [1] and in experiment [2] were 0% and 51 to 75%, respectively.

As for `O=C(COc1ccccc1)N1CCCc2c(O)nc(-c3ccccn3)nc21` [drawing 2071], the inhibition at 30 µM lay in the range of 1 to 25% in experiment [1] and 76 to 100% in experiment [2].

For `COc1cc2c(cc1OC)CCN(C(=O)c1csc3c(O)nc(-c4ccccn4)nc13)CC2` [drawing 2117], the inhibition at 30 µM in experiment [1] lay within 1 to 25%; in experiment [2] it was 26 to 50%.

As for `Oc1nc(-c2ccccn2)nc2cc(-c3ccccc3)sc12` [drawing 2389], the inhibition at 30 µM in experiment [1] fell in the range of 1 to 25%; in experiment [2] it was 26 to 50%.

Regarding `O=C(COCc1ccnc(O)c1)Nc1nc(-c2ccccn2)nc2sccc12` [drawing 2250], the inhibition at 30 µM in experiment [1] was 0%; in experiment [2], 26 to 50%.

Consider `Cn1cnc(-c2nc(O)c3scc(-c4cccc(OC(F)(F)F)c4)c3n2)c1` [drawing 2433], for which the inhibition at 30 µM in experiment [1] and in experiment [2] was 0% in each case.

As for `Oc1nc(-c2ccccn2)nc2c(-c3cncc(C(F)F)c3)csc12` [drawing 2329], the inhibition at 30 µM in experiment [1] was 0%; in experiment [2], 26 to 50%.

In the case of `Oc1nc(-c2ccccn2)nc2sc3c(c12)CCCNC3` [drawing 2245], the inhibition at 30 µM in experiment [1] and in experiment [2] was 1 to 25% in each case.

As to `Cn1ccc(C(=O)Nc2nnc(-c3ccccn3)[nH]2)cc1=O` [drawing 1945], the inhibition at 30 µM is 1 to 25% in experiment [1] and 0% in experiment [2].

Regarding `CC(C)c1nn(C)cc1-c1csc2c(O)nc(-c3ccccn3)nc12` [drawing 2322], the values for the inhibition at 30 µM in experiment [1] and in experiment [2] were 1 to 25% and 76 to 100%, respectively.

For the compound `Cn1cc(C2CN(C(=O)c3csc4c(O)nc(-c5ccccn5)nc34)CCN2)cn1` (stereo not shown) [drawing 2201], the inhibition at 30 µM in experiment [1] and in experiment [2] was 76 to 100% in each case.

For `CC(C)CNC(=O)CN1CCN(c2nc(-c3ccccn3)nc3scc(-c4ccccc4)c23)CC1` [drawing 2151], the figures for the inhibition at 30 µM in experiment [1] and in experiment [2] were 26 to 50% and 76 to 100%, respectively.

`OCCn1ncc2c1CCCC2Nc1nc(-c2ccccn2)nc2scc(-c3ccccc3)c12` (stereo not shown): the inhibition at 30 µM in experiment [1] and in experiment [2] was 26 to 50% throughout.

With `O=C(Cn1c(=O)cnc2ccccc21)Nc1nc(-c2ccccn2)cs1` [drawing 2010], the results for the inhibition at 30 µM in experiment [1] and in experiment [2] were 0% and 51 to 75%, respectively.

As to `COC(=O)c1cc(NCc2nc(CC(C)C)no2)ccc1Cl` [drawing 2047], the inhibition at 30 µM is 1 to 25% in experiment [1] and 26 to 50% in experiment [2].

For `O=C(Cc1cccc(F)c1)Nc1nnc(-c2ccccn2)[nH]1` [drawing 1960], the inhibition at 30 µM in experiment [1] is 0%; in experiment [2] it was 1 to 25%.

In the case of `CCc1cc(NNC(=O)c2ccc(C#N)cc2)nc(-c2ccccn2)n1` [drawing 2040], the inhibition at 30 µM in experiment [1] and in experiment [2] was 76 to 100% each time.

As to `CN(C)CCOc1cccc(-c2csc3c(O)nc(-c4ccccn4)nc23)c1` [drawing 2323], the inhibition at 30 µM in experiment [1] and in experiment [2] was 76 to 100% throughout.

For the compound `Oc1nc(-c2ccccn2)nc(Oc2cccc(C(F)(F)F)c2)c1O` [drawing 2385], the inhibition at 30 µM in experiment [1] and in experiment [2] was 1 to 25% in each case.

Turning to `COc1ccc(CCC(=O)Nc2nnc(-c3ccccn3)[nH]2)cc1F` [drawing 1929], the inhibition at 30 µM in experiment [1] lay within 26 to 50%; in experiment [2] it was 1 to 25%.

Take `Oc1nc(-c2ccccn2)nc2c1ncn2-c1ccccc1` [drawing 2123]: the inhibition at 30 µM was 0% in experiment [1] and 1 to 25% in experiment [2].

As for `Oc1nc(-c2ccccn2)nc2c(-c3ccc(OC4CCOC4)cc3)csc12` (stereo not shown) [drawing 2254], the inhibition at 30 µM in experiment [1] is 26 to 50%; in experiment [2] it was 76 to 100%.

For `O=C1CCN(c2nc(-c3ccccn3)nc3scc(-c4ccccc4)c23)CC1` [drawing 2163], the inhibition at 30 µM in experiment [1] and in experiment [2] was 1 to 25% in each case.

In the case of `Oc1nc(-c2ccccn2)nc2c(-c3ccccc3)c(-c3ccncc3)sc12` [drawing 2375], the inhibition at 30 µM was 0% in experiment [1] and 1 to 25% in experiment [2].

For `O=C(Cc1cccc(F)c1)Nc1nc(-c2ccccn2)cs1` [drawing 2018], the inhibition at 30 µM in experiment [1] and in experiment [2] was 1 to 25% each time.

Take `Cc1sc2c(O)nc(-c3ccccn3)nc2c1-c1ccccc1` [drawing 2297]: the inhibition at 30 µM in experiment [1] and in experiment [2] was 76 to 100% throughout.

Regarding `O=C(c1csc2c(O)nc(-c3ccccn3)nc12)N1CCN(Cc2ccc(O)cc2)CC1` [drawing 2189], the inhibition at 30 µM in experiment [1] and in experiment [2] was 1 to 25% each time.

Regarding `O=C(c1ccc2ccccc2n1)N1CCCc2c(O)nc(-c3ccccn3)nc21` [drawing 2075], the figures for the inhibition at 30 µM in experiment [1] and in experiment [2] were 1 to 25% and 76 to 100%, respectively.

As for `COCCNc1nc(-c2ccccn2)nc2sc(-c3ccccc3)c(-c3ccccn3)c12` [drawing 2447], the inhibition at 30 µM in experiment [1] and in experiment [2] was 0% each time.

For `CC(C)Oc1ccc(-c2c(-c3ccccc3)sc3c(O)nc(-c4nccn4C)nc23)cc1F` [drawing 2438], the inhibition at 30 µM in experiment [1] is 0%; in experiment [2], 1 to 25%.

Consider `Cn1ccnc1-c1nc(O)c2sc(-c3ccccc3)c(-c3ccccc3Cl)c2n1` [drawing 2422], for which the inhibition at 30 µM in experiment [1] was 51 to 75%; in experiment [2] it was 76 to 100%.

Consider `CCCNC(=O)CN1CCN(c2nc(-c3ccccn3)nc3sc(-c4ccccc4)cc23)CC1` [drawing 2135], for which the inhibition at 30 µM in experiment [1] and in experiment [2] was 76 to 100% throughout.

As to `O=C(CCc1cnn(-c2ccccc2)c1)Nc1nnc(-c2ccccc2)[nH]1`, the inhibition at 30 µM fell in the range of 1 to 25% in experiment [1] and 26 to 50% in experiment [2].

As for `Oc1nc(-c2ccccn2)nc2c3c(sc12)CNC3` [drawing 2315], the inhibition at 30 µM in experiment [1] is 1 to 25%; in experiment [2], 0%.

`Oc1nc(-c2ccccn2)nc2c(-c3cc(C(F)(F)F)ccc3F)csc12` [drawing 2303]: the inhibition at 30 µM in experiment [1] is 1 to 25%; in experiment [2], 76 to 100%.

`CC(Oc1cccc(C#N)c1)C(=O)Nc1nnc(-c2ccccn2)[nH]1` (stereo not shown) [drawing 1967]: the inhibition at 30 µM in experiment [1] was 0%; in experiment [2], 1 to 25%.

`O=C(c1csc2c(O)nc(-c3ccccn3)nc12)N1CCNC(c2ccccc2F)C1` (stereo not shown) [drawing 2200]: the inhibition at 30 µM in experiment [1] was 1 to 25%; in experiment [2] it was 76 to 100%.

For the compound `Brc1csc2nc(-c3ccccn3)nc(N3CCOCC3)c12` [drawing 2126], the inhibition at 30 µM was 0% in experiment [1] and 51 to 75% in experiment [2].

Consider `O=C(CCc1cncnc1)Nc1nc(-c2ccccn2)nc2sccc12` [drawing 2283], for which the inhibition at 30 µM was 0% in experiment [1] and 26 to 50% in experiment [2].

`O=C(c1csc2c(O)nc(-c3ccccn3)nc12)N1CCN(Cc2ccc(O)c(Cl)c2)CC1` [drawing 2190]: the inhibition at 30 µM in experiment [1] lay in the range of 1 to 25%; in experiment [2], 76 to 100%.

On to `COc1ccc(C2CN(C(=O)c3csc4c(O)nc(-c5ccccn5)nc34)CCO2)cc1` (stereo not shown) [drawing 2193], for which the values for the inhibition at 30 µM in experiment [1] and in experiment [2] were 1 to 25% and 76 to 100%, respectively.

Regarding `Oc1nc(-c2ccccn2)nc2c(-c3ccccc3C(F)F)csc12` [drawing 2275], the inhibition at 30 µM in experiment [1] and in experiment [2] was 76 to 100% throughout.

Consider `O=C1CN(c2nc(-c3ccccn3)nc3scc(-c4ccccc4)c23)CCN1CCO` [drawing 2131], for which the inhibition at 30 µM in experiment [1] and in experiment [2] was 1 to 25% throughout.

As to `CS(=O)(=O)CCCC(=O)N1CCCc2c(O)nc(-c3ccccn3)nc21` [drawing 2082], the figures for the inhibition at 30 µM in experiment [1] and in experiment [2] were 0% and 26 to 50%, respectively.

Turning to `Oc1nc(-c2ccccn2)nc2c(-c3ccsc3)csc12` [drawing 2267], the inhibition at 30 µM in experiment [1] and in experiment [2] was 76 to 100% each time.

`CCN(CC)S(=O)(=O)c1cc(C)c(C)c(NC(=O)CCc2c(C)nc(-c3ccccn3)nc2O)c1` [drawing 2037]: the results for the inhibition at 30 µM in experiment [1] and in experiment [2] were 1 to 25% and 0%, respectively.

`COCC(C)Nc1nc(-c2nccn2C)nc2sc(-c3ccccc3)c(-c3ccccc3)c12` (stereo not shown) [drawing 2404]: the inhibition at 30 µM in experiment [1] and in experiment [2] was 76 to 100% throughout.

Regarding `O=C(c1csc2c(O)nc(-c3ccccn3)nc12)N1CCOC(Cc2ccccc2)C1` (stereo not shown) [drawing 2195], the values for the inhibition at 30 µM in experiment [1] and in experiment [2] were 0% and 76 to 100%, respectively.

On to `O=C(NCCc1ccnc(O)n1)c1csc2nc(-c3ccccn3)nc(N3CCOCC3)c12` [drawing 2290], for which the inhibition at 30 µM was 0% in experiment [1] and 1 to 25% in experiment [2].
